Data as given in patent US5001115A, “Prodrugs of biologically active hydroxyaromatic compounds” (University of Florida, priority 1989, dated 1991).
Blank lines part the entries; values can stand above or below the compound they belong to.

Assay: Hydrolysis in pH=7.1 buffer at room temperature
Type: physicochemical
Method: The compounds: [drawing 4] were prepared similarly to the above product and their hydrolytic properties under similar conditions were evaluated.

half-life (similar conditions (pH=7.1 buffer, room temperature)): ~6 h
Compound: O=C1CCC(=O)N1COc1ccc([N+](=O)[O-])cc1 [(b)]

hydrolytic stability (in words) (pH=7.1, similar conditions): completely stable
Compound: O=C(NCOc1ccc([N+](=O)[O-])cc1)c1ccccc1 [Compound (a)]

half-life (pH=7.1 buffer, room temperature): ~0.283 h
Compound: O=C1c2ccccc2S(=O)(=O)N1COc1ccc([N+](=O)[O-])cc1 [Example 1, 4-Nitro-1-[1',1',3'-trioxo-(2'H)-1',2'-benzisothiazol-2'-yl]methoxybenzene]
